Experiments:
[1] = oral administration; cited from earlier work
[2] = Dissolution test (USP paddle method, purified water); type: physicochemical; conditions: after 3 hours; 900 mL purified water, paddle 50 rpm, 25 mg IH-901 equivalent
Method: The dissolution profile of a drug from the solid dispersion prepared in Example 2 was evaluated. IH-901, which had been used to prepare the solid dispersion of […], was used as a control group. The dissolution test was carried out under the conditions that the second method (paddle method) of the dissolution test methods in the general test method of the United states Phamacopoeia was used, 900 mL of purified water was used as a test liquid, and the rotational speed of a paddle was 50 rpm. 25 mg of IH-901 (control group) or the solid dispersion prepared in Example 2 corresponding to 25 mg of IH-901 was dissolved in a dissolution liquid, left for 180 minutes and then filtered. Then, the content of IH-901 in the filtered solution was measured by high performance liquid chromatography. The high performance liquid chromatograph is commercially available from Hitachi Co., Ltd. The analysis of high performance liquid chromatography was conducted under the conditions of a C18 column (Luna, 5 um, 250 mm, Phenomenex Corp., U.S.A), mobile phase of acetonitrile:water (70:30), a flow rate of 1 mL/min, a detection wavelength of 205 nm and an injection volume of 50 ul. In FIG. 1, the X-axis represents time passage, and the Y-axis represents dissolution rate (%). Further, in FIG. 1, the raw material is represented as ◯, and the solid dispersion prepared in Example 2 is represented by […].

[3] = aqueous solution including 40% of a cosolvent and 10% of a surfactant or inclusion compound forming agent (hydroxypropyl-β-cyclodextrin); cited from earlier work

In the case of CC(C)=CCC[C@](C)(O[C@@H]1O[C@H](CO)[C@@H](O)[C@H](O)[C@H]1O)[C@H]1CC[C@]2(C)[C@@H]1[C@H](O)C[C@@H]1[C@@]3(C)CC[C@H](O)C(C)(C)[C@@H]3CC[C@]12C [IH-901, 20-O-β-D-glucopyranosyl-20(S)-protopanaxadiol], the bioavailability [1] is listed as 3.5%, the dissolution rate [2] is listed as “about 3%” and the “solubility of IH-901 in an aqueous solution” value [3] is listed as no more than 10000 µg/mL.

— US20120322752A1, “SOLID DISPERSIONS CONTAINING 20-O-beta-D-GLUCOPYRANOSYL-20(S)-PROTOPANAXADIOL” (priority 2009, published 2012)
